Data on 1 molecule can be found in patent publication US7935335B2, “Strains belonging to the genus Paenibacillus and method of controlling plant disease by using these strains or culture thereof” (Kaken Pharmaceutical Co., Ltd., priority 2004, dated 2011).

In one test the test system is parsley cultured cells. Briefly: Activity of inducing disease resistance: elicitor responsiveness of parsley cultured cells, phytoalexin detection by fluorescence. The class given is cell-based. As to conditions: 2.5 μM. The protocol: The activity of inducing disease resistance in plant of compound 1 and compound 2 according to the present invention was also evaluated according to the method of Siegrist, J. et al. The results are shown in Table 9.
The activity of inducing disease resistance in plant of each of compound 1 and compound 2 was evaluated in the same manner as in Evaluation Example 1 by adopting the method practiced in Evaluation Example 1, i.e., the method in which the elicitor responsiveness of parsley cultured cells was measured by the detection of phytoalexin using fluorescence.
The activity of inducing resistance to plant diseases of each of compound 3 and compound 4 was evaluated in the same manner as in Evaluation Example 1 by adopting the method practiced in Evaluation Example 1, i.e., the method in which the elicitor responsiveness of parsley cultured cells was measured by the detection of phytoalexin using fluorescence.

In test [1] the test system is Pseudomonas syringae pv. lachrymans. Briefly: Test Example 5: control effect of a culture broth on melon bacterial blight. The class given is in vivo. The following applies: foliar spray of 2 mL of 2 ppm solution. The procedure:
Each of nursery trays was filled with Aisai No. 1 (mfd. by Katakura Chikkarin Co., Ltd.) and a melon (cultivar: Arles) seedling was raised in each tray. In this case, a seed treatment plot was prepared by immersing melon seeds in a Petri dish containing 10 mL (10^8 spores/mL) of the culture broth of strain BS-0105 prepared in Production Example 2, followed by bacterization at 30° C. for 2 hours. After the development of a cotyledon, the seedling was potted in a 12-cm polyethylene pot filled with Aisai No. 1. When three true leaves were completely developed, the following plots were prepared: plots on which drench or foliar spray, respectively, treatment with 1 mL ([…]) of the culture broth of strain BS-0105 prepared in Production Example 2 was carried out, and a plot on which foliar spray of 2 mL of a 2 ppm solution of Acibenzolar-S-methyl was carried out. As to the inoculation of the pathogenic bacterium (Pseudomonas syringae pv. lachrymans), 5 days after the treatment, a liquid containing the bacterial blight bacterium previously cultured on a potato semisynthetic medium (a decoction consisting of 300 g of potato and 1 L of distilled water, calcium nitrate tetrahydrate 0.5 g, disodium hydrogenphosphate dodecahydrate 2 g, peptone 5 g, sucrose 20 g, powdered agar 15 g) was inoculated on the whole of each leaf by spraying so that the reverse side of the leaf might be mainly treated. Inspection for infection was carried out by counting lesions in each of leaves from second to fourth leaves 8 days after the inoculation with the pathogenic bacterium. The protective value was calculated from the number of the lesions by the following equation to make a comparison with respect to control effect. Protective value={1−(number of lesions on treated plot/number of lesions on untreated plot)}×100

In test [2] the test system is Fusarium wilt of cucumber fungus (Fusarium oxysporum f. sp. cucumerium). Briefly: Evaluation Example 5: control effect on Fusarium wilt of cucumber. The following applies: 20 ppm, Spray. The class given is in vivo. The procedure:
Each of plastic vats was filled with horticultural compost and sown with cucumber (cultivar: Sagamihanjiro), followed by growing in a greenhouse for 12 days. The cucumber young seedling having a developed cotyledon was subjected to foliar spray treatment with the formulation obtained in the above-mentioned preparation example, in a proportion of 1 mL per seedling. After the vats were allowed to stand in a glass house at 25° C. for 3 days, the plant foot of each plant was inoculated with 2 mL of a suspension (3×10^7 spores/mL) of conidia of Fusarium wilt of cucumber fungus (Fusarium oxysporum f. sp. cucumerium) in distilled water by drench. The vats were allowed to stand in a glass house at 25° C. for 14 days to cause the disease. The disease severity was calculated from the degree of infection and then the protective value was calculated from the disease severity values by the following equation to make a comparison with respect to control effect. […]

Test [3] has as its system cucumber anthracnose fungus (Colletotrichum orbiculare). Briefly: Test Example 1: control effect of a culture of each strain on cucumber anthracnose. Format: in vivo. The following applies: cucumber first true leaf; 20 ppm. The protocol: Each of plastic pots was filled with horticultural compost and sown with cucumber (cultivar: Suyo), followed by growing in a greenhouse for 20 days. The cotyledon of the cucumber young seedling having a developed first true leaf was coated with 0.1 mL of whole culture of each of strains BS-0048, BS-0074, BS-0105 and BS-0277 prepared by the method described in Production Example 1. After the pots were allowed to stand in a glass house at 25° C. for 3 days, the plants were inoculated with a suspension of cucumber anthracnose fungus conidia in distilled water (Colletotrichum orbiculare, 1×10^6 spores/ml) by spraying. The pots were allowed to stand in a dark moist chamber at 25° C. for 24 hours and then in a glass house at 25° C. for 7 days to cause the disease. Lesions in the first true leaf of each seedling were counted and the protective value was calculated from the number of the lesions by the following equation to make a comparison with respect to control effect. Protective value={1−(number of lesions on treated plot/number of lesions on untreated plot)}×100

Test [4] deals with cucumber bacterial blight bacterium (Pseudomonas syringae pv. lachrymans). Briefly: Evaluation Example 3: control effect on cucumber bacterial blight, plant foot drench. The class given is in vivo. As to conditions: 20 ppm. The procedure:
Each of plastic pots was filled with horticultural compost and sown with cucumber (cultivar: Suyo), followed by growing in a greenhouse for 20 days. The cucumber young seedling having a developed second true leaf was subjected to plant foot drench treatment with the formulation obtained in the above-mentioned preparation example, in a proportion of 5 mL per seedling. After the pots were allowed to stand in a glass house at 25° C. for 3 days, the plants were inoculated with a suspension (1×10^8 CFU/mL) of cucumber bacterial blight bacterium (Pseudomonas syringae pv. lachrymans) in distilled water by spraying. The pots were allowed to stand in a dark moist chamber at 25° C. for 24 hours and then in a glass house at 25° C. for 7 days to cause the disease. Lesions in each leaf were counted and the protective value was calculated from the number of the lesions by the following equation to make a comparison with respect to control effect. Protective value={1−(number of lesions on treated plot/number of lesions on untreated plot)}×100

SMILES strings stand for the structures.

For the molecule `CSC(=O)c1cccc2nnsc12` [Acibenzolar-S-methyl, S-methyl 1,2,3-benzothiazole-7-carboxylate], the Relative fluorescence in the test with parsley cultured cells (Evaluation Example 6, elicitor treatment No) amounted to 86.9. In the test on parsley cultured cells (Evaluation Example 6, elicitor treatment Yes), this molecule yielded a Relative fluorescence of 664.8. The same molecule displayed a Relative fluorescence in the test on parsley cultured cells (Evaluation Example 7, elicitor No) of 0.8. This molecule gave a Relative fluorescence in the test on parsley cultured cells (Evaluation Example 7, elicitor Yes) of 377.5. In test [1], the “Protective value Average” value was determined as 78.5, the “Protective value Fourth leaf” value is 66.7, the “Protective value Second leaf” value turned out to be 100.0 and the “Protective value Third leaf” value is listed as 68.8. In test [2], this molecule yielded a Disease severity of 9.4 and a Protective value of 75.6. In test [3], this molecule came in with a Number of lesions of 5 and a Protective value of 96.7. Further, in test [4], the “Number of lesions per leaf” value came out at 137.8 b and the Protective value amounted to 78.8.
